From patent US5763442A, “Anti-parasitic activity” (Universiteit Van Pretoria, priority 1995, dated 1998)

Tests used:
[1] = tested on: Plasmodium falciparum (Fab-9); experiment: 3H-hypoxanthine uptake, chloroquine sensitive strain Fab-9; format: cell-based; settings: read-out: PERCENTAGE INHIBITION (3H-hypoxanthine uptake)
P. falciparum (RB-1) = experiment: Direct antimalarial activity, flow cytometry, strain RB-1; format: cell-based, Plasmodium falciparum
Method: To investigate the direct antimalarial activity of the riminophenazines B669, B4100, B4103, B4112, B4121, B4158 and B4169 against a laboratory strain of P. falciparum the following experiment was done:
A laboratory strain of P. falciparum (RB-1; obtained from Dr B L Sharp, National Malaria Research Programme, MRC, Durban) was maintained.
For these experiments malaria cultures of haematocrit 5.0% and initial parasitemia 2.0% were used. The malaria infected erythrocytes (ring stage) were incubated in microtitre plates with serial dilutions of B669, B4100, B4103, B4112, B4121, B4158 and B4169 (0.125-2 μg/ml) for 48 hours and processed for analysis on the flow cytometer as described in Example 3.

[2] = tested on: Plasmodium falciparum (RB-1); experiment: Microscopic parasitaemia, chloroquine resistant strain RB-1 (reversal of chloroquine resistance); format: cell-based; settings: for Percentage red blood cells infected with P. falciparum (RB-1): 24 h
Method: (§1) The activity of riminophenazines to reverse chloroquine resistance in Plasmodium falciparum was tested in the following manner:
(§2) A preliminary series of experiments were carried out using two laboratory strains of P. falciparum (RB-1 and Fab-9). These strains were obtained from the Medical Research Council, Durban, where they were characterised as being either mildly resistant or sensitive to chloroquine. The isolates were maintained in suspension culture in known manner (as described by Freese J A, Markus M B and Golenser J, 1991; Bulletin of the World Health Organization 69: 707-712).
(§3) Infected erythrocytes were diluted with human O-positive red blood cells to a parasitaemia of 0.2-0.9% and suspended to 3% in RPMI containing 44 mg/l hypoxanthine and 10% human type O serum. Aliquots (100 μl) of the suspension were dispensed into the wells of 96-well microtitre plates. To these suspensions 100 μl of the medium were added containing either chloroquine or B669 alone or in combination. The final drug concentrations were 31, 62, 125, 250 500 and 1000 nM for chloroquine and 0.125, 0.25, 0.5 and 1.0 μg/ml for B669. Relevant solvent controls were included. The plates were incubated for 24 hours at 38° C. in a desiccator gassed with 5% O2, 5% CO2 and 90% N2. Thin blood smears were prepared from each well, stained with Giemsa stain and the percentage of red blood cells infected by at least one parasite determined microscopically.

[3] = tested on: Plasmodium falciparum (Fab-9); experiment: Microscopic parasitaemia, chloroquine sensitive strain Fab-9 (reversal of chloroquine resistance); format: cell-based; settings: for Percentage red blood cells infected with P. falciparum (Fab-9): 24 h
Method: as §1, §2, §3

[4] = tested on: Plasmodium falciparum (Fab-9); experiment: 3H-hypoxanthine uptake, chloroquine sensitive strain Fab-9; format: cell-based; settings: for PERCENTAGE INHIBITION (3H-hypoxanthine uptake): Fab-9
Method: The following experiment was done to confirm previous results which were obtained microscopically and details of which are set out in Example 1.
For this experiment the same two strains of P. falciparum, as used in Example 1 (RB-1 and Fab-9) were again used. Infected erythrocytes were diluted with human O-positive red blood cells to a parasitaemia of 0.2-0.9% and suspended to 3% in RPMI containing 44 mg/l hypxanthine and 10% human type serum. Aliquots (100 μl) of the suspension were dispensed into the wells of 96-well microtitre plates. To these suspensions 100 μl of the medium were added containing either chloroquine or B669 alone or a combination of chloroquine and B669. Relevant solvent controls were included. Negative control wells were also included containing uninfected red blood cells. The plates were incubated at 38° C. in a desiccator gassed with 5% O2, 5% CO2 and 90% N2. After 24 hours 100 μl culture medium of each well was replaced with […] of hypoxathine--free medium containing 10% human serum and 0,5μ Ci^3 H-hypoxanthine and incubated for a further 18 hours. The contents of the wells were then harvested on to glass fibre filters. The filters were washed with distilled water, dried, haemoglobin dissolved in a sodium bicarbonate solution and placed in scintillation vials containing 4 ml scintillation fluid and counted for 5 min in a liquid scintillation counter.
The percentage inhibition was calculated as follows: [formula] where CPM was the mean of two values of counts per minute for each treatment.

[5] = B669 0.125 μg/ml + chloroquine 500 nM
[6] = B669 0.25 μg/ml + chloroquine 31 nM
[7] = B669 0.25 μg/ml + chloroquine 500 nM, *parasites morphologically abnormal
[8] = B669 0.25 μg/ml + chloroquine 1000 nM
[9] = B669 0.5 μg/ml + chloroquine 1000 nM
[10] = B669 1.0 μg/ml + chloroquine 1000 nM
[11] = B669 1.0 μg/ml alone, *parasites morphologically abnormal
[12] = B669 0.125 μg/ml + chloroquine 31 nM
[13] = B669 0.25 μg/ml + chloroquine 125 nM
[14] = B669 0.5 μg/ml + chloroquine 125 nM
[15] = B669 1.0 μg/ml + chloroquine 31 nM
[16] = B669 1.0 μg/ml + chloroquine 125 nM

With `c1ccc(Nc2cc3nc4ccccc4n(-c4ccccc4)c-3cc2=NC2CCCCC2)cc1` [Compound B669, N,5-bis(phenyl)-3,5-dihydro-3-(cyclohexylimino)-2-phenazinamine] the inhibition at 0.125 µg/mL [1] was 29.8%, the inhibition at 0.25 µg/mL [1] was 10.4% and the inhibition at 0.5 µg/mL [1] was 41.7%. The inhibition at 1 µg/mL [1] was 46.6%, the inhibition at 0.5 µg/mL (P. falciparum (RB-1); Plasmodium falciparum, 0.5 μg/ml, 48 h, FIG. 2, read-out: inhibition of growth of P. falciparum) was greater than 50% and the “activity against the malaria microorganism Plasmodium falciparum” value (P. falciparum (RB-1); summary statement) was “good activity”. For the same compound, the “increase of sensitivity to chloroquine, chloroquine resistant strain” value ([2]; 125 nM chloroquine, 0.125 μg/ml B669) was “up to two fold”, the “increase of sensitivity to chloroquine, chloroquine resistant strain” value ([2]; 500 nM chloroquine, 0.25 μg/ml B669) was “up to three fold” and the “Percentage red blood cells infected with P. falciparum (RB-1)” value ([2]; B669 0.125 μg/ml + chloroquine 125 nM, *parasites morphologically abnormal) was 1.6%. The “Percentage red blood cells infected with P. falciparum (RB-1)” value [2, 5] was 1.3%, the “Percentage red blood cells infected with P. falciparum (RB-1)” value ([2]; B669 0.125 μg/ml alone) was 3.6% and the “Percentage red blood cells infected with P. falciparum (RB-1)” value [2, 6] was 3.9%. The “Percentage red blood cells infected with P. falciparum (RB-1)” value ([2]; B669 0.25 μg/ml + chloroquine 62 nM, *parasites morphologically abnormal) was 2.8%, the “Percentage red blood cells infected with P. falciparum (RB-1)” value ([2]; B669 0.25 μg/ml + chloroquine 125 nM, *parasites morphologically abnormal) was 1.9% and the “Percentage red blood cells infected with P. falciparum (RB-1)” value [2, 7] was 0.9%. The “Percentage red blood cells infected with P. falciparum (RB-1)” value [2, 8] was 0%, the “Percentage red blood cells infected with P. falciparum (RB-1)” value ([2]; B669 0.25 μg/ml alone) was 4.0% and the “Percentage red blood cells infected with P. falciparum (RB-1)” value ([2]; B669 0.5 μg/ml + chloroquine 250 nM, *parasites morphologically abnormal) was 1.4%. The “Percentage red blood cells infected with P. falciparum (RB-1)” value [2, 9] was 0.1%, the “Percentage red blood cells infected with P. falciparum (RB-1)” value ([2]; B669 0.5 μg/ml alone) was 3.2% and the “Percentage red blood cells infected with P. falciparum (RB-1)” value ([2]; B669 1.0 μg/ml + chloroquine 31 nM, *parasites morphologically abnormal) was 2.6%. For the same compound, the “Percentage red blood cells infected with P. falciparum (RB-1)” value ([2]; B669 1.0 μg/ml + chloroquine 250 nM, *parasites morphologically abnormal) was 0.1%, the “Percentage red blood cells infected with P. falciparum (RB-1)” value [2, 10] was 0% and the “Percentage red blood cells infected with P. falciparum (RB-1)” value [2, 11] was 2.6%. The “direct effect on parasite morphology” value ([2]; B669 alone 1.0 μg/ml) was “morphological deterioration of the parasites was observed”, the “percentage parasitaemia versus untreated control systems” value ([2]; B669 alone 1.0 μg/ml) was “did not differ from the untreated control systems” and the “Percentage red blood cells infected with P. falciparum (Fab-9)” value [3, 12] was 3.9%. For the same compound, the “Percentage red blood cells infected with P. falciparum (Fab-9)” value [3, 5] was 0.9%, the “Percentage red blood cells infected with P. falciparum (Fab-9)” value ([3]; B669 0.125 μg/ml alone) was 4.0% and the “Percentage red blood cells infected with P. falciparum (Fab-9)” value [3, 6] was 3.1%. For the same compound, the “Percentage red blood cells infected with P. falciparum (Fab-9)” value [3, 13] was 2.9%, the “Percentage red blood cells infected with P. falciparum (Fab-9)” value [3, 7] was 0.1% and the “Percentage red blood cells infected with P. falciparum (Fab-9)” value ([3]; B669 0.25 μg/ml alone) was 4.4%. The “Percentage red blood cells infected with P. falciparum (Fab-9)” value ([3]; B669 0.5 μg/ml + chloroquine 31 nM, *parasites morphologically abnormal) was 2.7%, the “Percentage red blood cells infected with P. falciparum (Fab-9)” value [3, 14] was 3.0% and the “Percentage red blood cells infected with P. falciparum (Fab-9)” value ([3]; B669 0.5 μg/ml + chloroquine 500 nM, *parasites morphologically abnormal) was 0.1%. For the same compound, the “Percentage red blood cells infected with P. falciparum (Fab-9)” value ([3]; B669 0.5 μg/ml alone) was 3.0%, the “Percentage red blood cells infected with P. falciparum (Fab-9)” value [3, 15] was 2.9% and the “Percentage red blood cells infected with P. falciparum (Fab-9)” value [3, 16] was 0.9%. The “Percentage red blood cells infected with P. falciparum (Fab-9)” value ([3]; B669 1.0 μg/ml + chloroquine 500 nM, *parasites morphologically abnormal) was 0.1%, the “Percentage red blood cells infected with P. falciparum (Fab-9)” value [3, 11] was 4.1% and the “direct effect on parasite morphology” value ([3]; B669 alone 1.0 μg/ml) was “morphological deterioration of the parasites was observed”. For the same compound, the “percentage parasitaemia versus untreated control systems” value ([3]; B669 alone 1.0 μg/ml) was “did not differ from the untreated control systems”, the “effect on sensitivity of chloroquine sensitive strain to chloroquine” value ([3]; microscopy) was “did not increase the sensitivity” and the “effect on sensitivity of chloroquine sensitive strain to chloroquine” value ([4]; 3H-hypoxanthine uptake) was “did not increase the sensitivity”. For the same compound, the “sensitivity of chloroquine sensitive strain to B669 alone” value ([4]; B669 alone 0.125-1.0 μg/ml) was “sensitive to B669 alone”, the “PERCENTAGE INHIBITION (3H-hypoxanthine uptake)” value (“PERCENTAGE INHIBITION” for short) [4, 12] was 12.9% and the “PERCENTAGE INHIBITION” value ([4]; B669 0.125 μg/ml + chloroquine 62 nM) was 7.4%. The “PERCENTAGE INHIBITION” value ([4]; B669 0.125 μg/ml + chloroquine 125 nM) was 68.3%, the “PERCENTAGE INHIBITION” value ([4]; B669 0.125 μg/ml + chloroquine 250 nM) was 81.4% and the “PERCENTAGE INHIBITION” value [4, 5] was 100%. For the same compound, the “PERCENTAGE INHIBITION” value ([4]; B669 0.125 μg/ml + chloroquine 1000 nM) was 100%, the “PERCENTAGE INHIBITION” value [4, 6] was 21.0% and the “PERCENTAGE INHIBITION” value ([4]; B669 0.25 μg/ml + chloroquine 62 nM) was 0%. The “PERCENTAGE INHIBITION” value [4, 13] was 34.9%, the “PERCENTAGE INHIBITION” value ([4]; B669 0.25 μg/ml + chloroquine 250 nM) was 85.5% and the “PERCENTAGE INHIBITION” value ([4]; B669 0.25 μg/ml + chloroquine 500 nM) was 100%. The “PERCENTAGE INHIBITION” value [4, 8] was 100%, the “PERCENTAGE INHIBITION” value ([4]; B669 0.5 μg/ml + chloroquine 31 nM) was 60.5% and the “PERCENTAGE INHIBITION” value ([4]; B669 0.5 μg/ml + chloroquine 62 nM) was 91.7%. For the same compound, the “PERCENTAGE INHIBITION” value [4, 14] was 93.6%, the “PERCENTAGE INHIBITION” value ([4]; B669 0.5 μg/ml + chloroquine 250 nM) was 100% and the “PERCENTAGE INHIBITION” value ([4]; B669 0.5 μg/ml + chloroquine 500 nM) was 100%. The “PERCENTAGE INHIBITION” value [4, 9] was 100%, the “PERCENTAGE INHIBITION” value [4, 15] was 98.8% and the “PERCENTAGE INHIBITION” value ([4]; B669 1.0 μg/ml + chloroquine 62 nM) was 95.9%. The “PERCENTAGE INHIBITION” value [4, 16] was 100%, the “PERCENTAGE INHIBITION” value ([4]; B669 1.0 μg/ml + chloroquine 250 nM) was 100% and the “PERCENTAGE INHIBITION” value ([4]; B669 1.0 μg/ml + chloroquine 500 nM) was 100%. The “PERCENTAGE INHIBITION” value [4, 10] was 100% and the direct anti-malaria activity ([4]; especially chloroquine sensitive strain) was “Direct anti-malaria activity”.
